Patent publication US8853258B2, “C-linked hydroxamic acid derivatives useful as antibacterial agents” (Pfizer Inc., priority 2009, dated 2014)
Converted amounts (≈) assume the structure as drawn. Where two headings read alike, the source gives them in different places.

Tests used:
[1] = molecular target: Pseudomonas aeruginosa LpxC enzyme (Pseudomonas aeruginosa (strain ATCC 15692 / DSM 22644 / CIP 104116 / JCM 14847 / LMG 12228 / 1C / PRS 101 / PAO1), UniProt P47205); experiment: IC50 Assay, LpxC Enzyme from P. aeruginosa (PA LpxC Enzyme IC50); assay type: biochemical
In short: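 Reaction run 1 h then stopped with 1N HCl. Conversion measured by RapidFire high-throughput mass spectrometry. IC50 derived from percent conversion relative to a no-enzyme control.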

[2] = test system: Acinetobacter baumanii/haemolyticus: Multidrug-resistant clinical isolate (AB-3167); experiment: MIC determination (CLSI), AB-3167; assay type: cell-based; details: for MIC: Acinetobacter baumannii, Table 3, read-out: AB-3167 MIC
In short: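 Multidrug-resistant clinical isolate AB-3167 (A. baumannii/haemolyticus) tested for minimum inhibitory concentration following CLSI dilution susceptibility standards M7-A7 and M100-S18.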

[3] = test system: Klebsiella pneumoniae: Ciprofloxacin-resistant isolate, ESBL, clinical isolate (KP-3700); experiment: MIC determination (CLSI), KP-3700; assay type: cell-based
In short: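 MIC measured by broth dilution according to CLSI M7-A7 and M100-S18 standards. Test organism was a ciprofloxacin-resistant, ESBL-expressing clinical isolate.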

[4] = test system: Escherichia coli EC-1: VOGEL, mouse virulent; experiment: MIC determination (CLSI), EC-1; assay type: cell-based; details: for MIC: Escherichia coli, read-out: EC-1 MIC
In short: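 E. coli Vogel, a mouse-virulent strain (EC-1), was tested. MICs were set by dilution susceptibility testing per CLSI standards M7-A7/M100-S18.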

[5] = test system: Pseudomonas aeruginosa UI-18: Wild-type (PA-7); experiment: MIC determination (CLSI), PA-7; assay type: cell-based; details: for MIC: Pseudomonas aeruginosa, Table 3, read-out: PA-7 MIC
In short: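 MIC by dilution method per CLSI M7-A7 and M100-S18 guidelines. Strain: wild-type Pseudomonas aeruginosa UI-18.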

[6] = Table 3, read-out: PA LpxC enzyeme IC^50
[7] = P. aeruginosa LpxC enzyme, read-out: PA LpxC enzyeme IC50
[8] = Acinetobacter baumanii/haemolyticus AB-3167
[9] = Pseudomonas aeruginosa UI-18 (PA-7)
[10] = Acinetobacter baumanii/haemolyticus multidrug-resistant clinical isolate AB-3167
[11] = Escherichia coli EC-1 VOGEL, mouse virulent
[12] = Pseudomonas aeruginosa UI-18 wild-type PA-7

How did the IC50 [1, 6] turn out when Cc1cccc(-c2nc(COc3ccc(CCC(C)(C(=O)NO)S(C)(=O)=O)cc3)c(C)o2)c1 (stereo not shown) [Example 278, N-hydroxy-2-methyl-4-(4-{[5-methyl-2-(3-methylphenyl)-1,3-oxazol-4-yl]methoxy}phenyl)-2-(methylsulfonyl)butanamide] was run?
The IC50 was 10.4 nM.

What about the MIC [2] of the same compound?
Its MIC is no less than 64 µg/mL.

And the “KP-3700 MIC” value [3]?
Its value is “≧64 mg/L”.

And the MIC [4]?
Its MIC is 32 µg/mL (≈ 67.7 µM).

And the MIC [5]?
Its MIC is no less than 64 µg/mL.

CC(C)(O)C(=O)c1ccc(-c2ccc(CC[C@](C)(C(=O)NO)S(C)(=O)=O)cc2)cc1 [Example 217] was tested. Which IC50 [1, 7] did it give?
Its IC50 is 0.278 nM.

What about the “AB-3167 MIC” value [2, 8] of the same compound?
The value was “≧64 mg/L”.

What about the “KP-3700 MIC” value [3] of the same compound?
The value was 4 µg/mL.

What about the “EC-1 MIC” value ([4]; Escherichia coli EC-1) of the same compound?
The value was 0.5 µg/mL.

And the “PA-7 MIC” value [5, 9]?
Its value is 4 µg/mL.

How did the IC50 [1, 7] turn out when CC(CCc1ccc(-c2ccc(CCCO)cc2)cc1)(C(=O)NO)S(C)(=O)=O (stereo not shown) [Example 47] was run?
Its IC50 is 0.132 nM.

And the “AB-3167 MIC” value [2, 10]?
The value was “≧64 mg/L”.

And the “KP-3700 MIC” value [3]?
Its value is 2 µg/mL.

And the “EC-1 MIC” value [4, 11]?
The value was 0.5 µg/mL.

What about the “PA-7 MIC” value [5, 12] of the same compound?
The value was 1 µg/mL.

CC(CCc1ccc(OCc2c(F)cccc2F)cc1)(C(=O)NO)S(C)(=O)=O (stereo not shown) [Example 258, 4-{4-[(2,6-difluorobenzyl)oxy]phenyl}-N-hydroxy-2-methyl-2-(methylsulfonyl)butanamide] was tested. Which IC50 [1, 6] did it give?
The IC50 was 0.599 nM.

And the MIC [2]?
Its MIC is 32 µg/mL (≈ 77.4 µM).

What about the “KP-3700 MIC” value [3] of the same compound?
The value was 16 µg/mL.

What about the MIC [4] of the same compound?
The MIC was 2 µg/mL (≈ 4.84 µM).

What about the MIC [5] of the same compound?
The MIC was 2 µg/mL (≈ 4.84 µM).

What does the source list for Cc1cc(-c2ccc(CCC(C)(C(=O)NO)S(C)(=O)=O)cc2)ccc1C#N (stereo not shown) [Example 109]?
IC50 [1, 7]: 0.144 nM; AB-3167 MIC [2, 10]: 32 µg/mL; KP-3700 MIC [3]: 2 µg/mL; EC-1 MIC [4, 11]: 0.5 µg/mL; PA-7 MIC [5, 12]: 2 µg/mL

CC(CCc1ccc(OCc2ccccc2)cc1)(C(=O)NO)S(C)(=O)=O (stereo not shown) [Example 132] was tested. Which IC50 [1, 7] did it give?
Its IC50 is 0.386 nM.

What about the “AB-3167 MIC” value [2, 10] of the same compound?
The value was 16 µg/mL.

And the “KP-3700 MIC” value [3]?
Its value is 16 µg/mL.

And the “EC-1 MIC” value [4, 11]?
Its value is 2 µg/mL.

And the “PA-7 MIC” value [5, 12]?
Its value is 2 µg/mL.

With Cc1cc(CCC(C)(C(=O)NO)S(C)(=O)=O)ccc1-c1ccc(C#N)cc1 (stereo not shown) [Example 162] as the compound, how does the IC50 [1, 7] read?
The IC50 was 0.241 nM.

And the “AB-3167 MIC” value [2, 10]?
The value was 16 µg/mL.

And the “KP-3700 MIC” value [3]?
Its value is 16 µg/mL.

And the “EC-1 MIC” value [4, 11]?
The value was 2 µg/mL.

What about the “PA-7 MIC” value [5, 12] of the same compound?
Its value is 4 µg/mL.

For Cc1cccnc1COc1ccc(CCC(C)(C(=O)NO)S(C)(=O)=O)cc1 (stereo not shown) [Example 287, N-hydroxy-2-methyl-4-{4-[(3-methylpyridin-2-yl)methoxy]phenyl}-2-(methylsulfonyl)butanamide], which IC50 [1, 6] is on record?
The IC50 was 3.14 nM.

And the MIC [2]?
Its MIC is no less than 64 µg/mL.

And the “KP-3700 MIC” value [3]?
The value was “≧64 mg/L”.

And the MIC [4]?
The MIC was no less than 64 µg/mL.

What about the MIC [5] of the same compound?
Its MIC is 16 µg/mL (≈ 40.8 µM).

Which IC50 [1, 7] does the source give for CC(CCc1ccc(-c2ccc(N3CCN(S(C)(=O)=O)CC3)cc2)cc1)(C(=O)NO)S(C)(=O)=O (stereo not shown) [Example 193] here?
Its IC50 is 1.08 nM.

And the “AB-3167 MIC” value [2, 10]?
Its value is “≧64 mg/L”.

And the “KP-3700 MIC” value [3]?
The value was “≧64 mg/L”.

And the “EC-1 MIC” value [4, 11]?
Its value is 16 µg/mL.

What about the “PA-7 MIC” value [5, 12] of the same compound?
The value was “≧64 mg/L”.

What does the source list for C[C@@](CCc1ccc(-c2ccc(C(=O)CO)cc2)cc1)(C(=O)NO)S(C)(=O)=O [Example 186]?
IC50 [1, 7]: 0.238 nM; AB-3167 MIC [2, 10]: ≧64 mg/L; KP-3700 MIC [3]: 4 µg/mL; EC-1 MIC [4, 11]: 2 µg/mL; PA-7 MIC [5, 12]: 1 µg/mL

For C[C@@](CCc1ccc(-c2cnc3ccccc3c2)cc1)(C(=O)NO)S(C)(=O)=O [Example 201], which IC50 [1, 7] is on record?
Its IC50 is 0.24 nM.

What about the “AB-3167 MIC” value [2, 8] of the same compound?
Its value is “≧64 mg/L”.

What about the “KP-3700 MIC” value [3] of the same compound?
Its value is 8 µg/mL.

What about the “EC-1 MIC” value ([4]; Escherichia coli EC-1) of the same compound?
The value was 1 µg/mL.

What about the “PA-7 MIC” value [5, 9] of the same compound?
Its value is 2 µg/mL.

With CC(CCc1ccc(-c2ccc(O)c(F)c2)cc1)(C(=O)NO)S(C)(=O)=O (stereo not shown) [Example 138] as the compound, how does the IC50 [1, 7] read?
Its IC50 is 0.335 nM.

And the “AB-3167 MIC” value [2, 10]?
Its value is 32 µg/mL.

What about the “KP-3700 MIC” value [3] of the same compound?
The value was 8 µg/mL.

What about the “EC-1 MIC” value [4, 11] of the same compound?
The value was 2 µg/mL.

What about the “PA-7 MIC” value [5, 12] of the same compound?
The value was 1 µg/mL.

With CC(CCc1ccc(OCc2ccccc2F)cc1)(C(=O)NO)S(C)(=O)=O (stereo not shown) [Example 242, 4-{4-[(2-fluorobenzyl)oxy]phenyl}-N-hydroxy-2-methyl-2-(methylsulfonyl)butanamide] as the compound, how does the IC50 [1, 6] read?
The IC50 was 0.655 nM.

What about the MIC [2] of the same compound?
Its MIC is no less than 64 µg/mL.

What about the “KP-3700 MIC” value [3] of the same compound?
The value was 8 µg/mL.

And the MIC [4]?
The MIC was 4 µg/mL (≈ 10.1 µM).

And the MIC [5]?
Its MIC is no less than 64 µg/mL.

Cc1ccccc1COc1ccc(CCC(C)(C(=O)NO)S(C)(=O)=O)cc1 (stereo not shown) [Example 260, N-hydroxy-2-methyl-4-{4-[(2-methylbenzyl)oxy]phenyl}-2-(methylsulfonyl)butanamide] was tested. Which IC50 [1, 6] did it give?
Its IC50 is 1.45 nM.

And the MIC [2]?
The MIC was 32 µg/mL (≈ 81.7 µM).

What about the “KP-3700 MIC” value [3] of the same compound?
Its value is “≧64 mg/L”.

And the MIC [4]?
Its MIC is 16 µg/mL (≈ 40.9 µM).

What about the MIC [5] of the same compound?
Its MIC is 8 µg/mL (≈ 20.4 µM).
